Paper PMC4186430, “Modeling of age-dependent amyloid accumulation and γ-secretase inhibition of soluble and insoluble Aβ in a transgenic mouse model of amyloid deposition” (Pharmacology Research & Perspectives, 2013)
Marks after values point to notes of the source that are not given here.

Columns and labels:
[1] = Population pharmacokinetic modeling of MRK-560 plasma and brain exposure in mice; format: in vivo, C57BL/6, Tg2576 and Tg2576 wild-type littermate mice
From the text: (§1) C57BL/6 female mice (Harlan Laboratories, Horst, The Netherlands), Tg2576 transgenic female mice (Taconics, Georgetown, NY), overexpressing human APP with the Swedish mutation (Hsiao et al. [1996]), and Tg2576 wild-type littermates were used in the experiments. The C57BL/6 and wild-type littermates were only used for pharmacokinetic PK sampling and analysis. The housing environment was humidity- and temperature-controlled with a constant 12-h light/dark cycle. The animals were kept in conventional housing (5–10 mice per cage) and had access to standard rodent chow and tap water ad libitum. The transgenic mice were aged at the local AstraZeneca (AZ) animal facilities. On the day of study, the mice were weighed. MRK-560 (synthesized in-house; AZ) or vehicle was administered by oral gavage. Three types of vehicles were used: (1) 1% MCC/NaCMC (Microcrystalline Cellulose/Sodiumcarboxymethyl Cellulose) +0.6% lipoid S100, (2) 20% HPβCD in 0.1 mol/L Meglumine, and (3) 40% HPβCD in 0.3 mol/L Meglumine. Observations of the animals’ health were made throughout all the experiments. Data from 23 MRK-560 studies were used in this analysis and details of all studies can be found in Table 1. For the AP analysis, data from vehicle and untreated Tg2576 mice from 48 additional (i.e., non-MRK-560) in-house studies were used. The additional dataset consisted of Aβ levels measured in Tg2576 mice of various ages, between 3.5 and 26 months at termination. Details of those data can be found in Appelkvist et al. ([2011]). In total, data from 71 preclinical studies were used.
Blood samples were collected by tail vein puncture in PK studies and occasionally in efficacy studies. At termination blood was withdrawn from anesthetized mice by heart puncture into prechilled microtainer Ethylenediaminetetraacetic acid tubes. Blood samples were immediately put on ice and centrifuged for 10 min at ∼3000g at +4°C within 20 min from sampling. Plasma was transferred to prechilled polypropylene tubes. The tubes were immediately frozen on dry ice and stored at −70°C until analysis.
Plasma samples and standards were precipitated with acetonitrile containing internal standard. After centrifugation, supernatant was transferred to a new 96-well plate, diluted with mobile phase, and injected on the LC/MS/MS system (Waters Corporation, Sollentuna, Sweden) (Bueters et al. [2011]). For the determination of the compound concentration in the brain, frozen mouse brains were weighed, and an ice-cold Ringer solution (two volumes per weight) was added. The brains were sonicated using a Multi-element probe SONICS VCX 500 (Newtown, CT). To 50 μL homogenized tissue 150 μL ice-cold acetonitrile containing an internal standard was added in a precipitation plate (96-well PP-plate; Waters, Milford, MA). After mixing and centrifugation (4°C, 4000 rpm, 20 min), supernatant was transferred to an analysis plate (PP-plate, Waters) and analyzed by LC/MS/MS (Borgegård et al. [2011]). As the brains were not perfused before exposure analysis, a volume of 1.3% of blood in the brain and the concentration of compound in plasma were used to calculate the brain concentration (Richard [1968]; Park and Sinko [2005]).
In the pharmacokinetic analysis, one- and two-compartmental first-order models were evaluated to fit the MRK-560 concentration–time profiles in plasma and brain. Separate absorption rate constants were estimated for oral and subcutaneous route of administration. A dose-dependent bioavailability was assessed and was modeled using the function shown in equation (1): [drawing 1] (1)
An instantaneous distribution of the unbound compound between plasma and brain was assumed. The brain exposure was modeled using equation (2): [drawing 2] (2) where CP was the plasma concentration, θ4 was the brain:plasma concentration ratio, and fu,pl and fu,br were the plasma and brain unbound fraction, respectively. […]

insoluble Aβ40 = experiment: Insoluble (FA) brain Aβ40 levels in Tg2576 mice after MRK-560, ELISA; format: in vivo, Tg2576 transgenic mice
From the text: as §1
After blood sampling, mice were sacrificed by decapitation followed by brain samples collection. Cerebellum and olfactory bulbs were removed and the forebrain was divided into left and right hemispheres, weighed, and snap frozen.
Left hemisphere of the cerebrum was sequentially extracted by diethylamine (DEA) followed by formic acid (FA) to obtain soluble and insoluble fractions of Aβ species, respectively. In short, brain tissue was sonicated in 1:18 (w/v) 0.2% DEA and 50 mmol/L NaCl, pH 11.6. After centrifugation (133,000g, 4°C, 1 h), the supernatant (soluble Aβ) was recovered, neutralized to a pH of 8.0 using 2 mol/L Tris-HCl, and immediately frozen to -70°C. The remaining pellet was sonicated in 1:18 (w/v) 70% FA. Homogenates were centrifuged at +4°C for 1 h at 133,000g. Recovered supernatants (insoluble Aβ) were neutralized to pH 7.5 with 1 mol/L Tris at 1:20 (w/v) dilutions, frozen on dry ice, and stored at −70°C until analysis.
Amyloid beta (Aβ40) and Aβ42 concentrations were measured in plasma, in soluble (DEA), and insoluble (FA) brain fractions using commercial sandwich ELISA kits (KHB3482 from Invitrogen, Carlsbad, CA, and RUO80177 from Innogenetics, Gent, Belgium). To compensate for matrix effects, plasma or brain homogenates from non-transgenic mice were used for preparation of standard curves. The lower and higher limits of quantification (LLOQ and HLOQ) were determined for each immunoassay plate based on the lowest and highest standard point, respectively. The coefficient of variation was less than20% and the accuracy was between 80% and 120%.
Statistical comparisons of the vehicle and MRK-560 treatment data were made by unpaired t-tests. The level of significance was set at P < 0.05. All analyses were performed using GraphPad Prism (GraphPad Prism Software Inc., San Diego, CA) and results were reported as mean ± SEM.

Plasma unbound fraction = format: in vitro ADME; settings: observed, read-out: fu,pl (plasma unbound fraction)

Compound: O=S(=O)(NC1CCC(c2cc(F)ccc2F)(S(=O)(=O)c2ccc(Cl)cc2)CC1)C(F)(F)F (stereo not drawn) [MRK-560, N-[cis-4-[(4-chlorophenyl)-sulfonyl]-4-(2,5-difluorophenyl)cyclohexyl]-1,1,1-trifluoromethanesulfonamide]
- Brain:plasma ratio ([1]; estimated total brain:plasma ratio, constant over 0.01-15 μmol/L): 0.31
- Kp ([1]; female, C57BL/6, Tg2576, Tg2576 wild-type littermates, mouse, brain, estimated total brain:plasma ratio, constant over 0.01-15 μmol/L): 0.3
- clearance ([1]; female, C57BL/6, Tg2576, Tg2576 wild-type littermates, mouse, plasma, two-compartmental model): 2 mL/min/kg
- differences in pharmacokinetics among C57BL/6, Tg2576 and Tg2576 wild-type littermates ([1]; mouse, in vivo): No differences
- Q ([1]; two-compartmental model): 127 mL/min/kg
- V2 ([1]; two-compartmental model): 0.28 L/kg
- V3 ([1]; two-compartmental model): 2.9 L/kg
- KA (oral) ([1]; two-compartmental model, absorption rate constant, oral): 0.41 h⁻¹
- KA (s.c.) ([1]; two-compartmental model, absorption rate constant, s.c.): 0.81 h⁻¹
- plasma exposure with vehicles 2 and 3 compared to vehicle 1 ([1]; vehicles 2, 3 = HPβCD/Meglumine, vehicle 1 = 1% MCC/NaCMC+0.6% lipoid S100): fourfold higher
- Effect on insoluble Aβ40 (insoluble Aβ40; study 8, Tg2576, 24 weeks at start, 0.5 μmol/kg p.o., 30 days, 3 h since last dosing): −8%
- Effect on insoluble Aβ40 (insoluble Aβ40; study 8, Tg2576, 24 weeks at start, 6 μmol/kg p.o., 30 days, 3 h since last dosing, P < 0.05): −57 ^* %
- Effect on insoluble Aβ40 (insoluble Aβ40; study 9, Tg2576, 24 weeks at start, 0.5 μmol/kg p.o., 94 days, 3 h since last dosing): 3%
- Effect on insoluble Aβ40 (insoluble Aβ40; study 9, Tg2576, 24 weeks at start, 6 μmol/kg p.o., 94 days, 3 h since last dosing): 32%
- Effect on insoluble Aβ40 (insoluble Aβ40; study 10, Tg2576, 24 weeks at start, 1 μmol/kg p.o., 29 days, 3 h since last dosing, P < 0.05): −40 ^* %
- Effect on insoluble Aβ40 (insoluble Aβ40; study 10, Tg2576, 24 weeks at start, 3 μmol/kg p.o., 29 days, 3 h since last dosing, P < 0.05): −42 ^* %
- Effect on insoluble Aβ40 (insoluble Aβ40; study 10, Tg2576, 24 weeks at start, 6 μmol/kg p.o., 29 days, 3 h since last dosing, P < 0.05): −69 ^* %
- Effect on insoluble Aβ40 (insoluble Aβ40; study 11, Tg2576, 24 weeks at start, 6 μmol/kg p.o., 30 days, 3 h since last dosing, P < 0.05): −31 ^* %
- Effect on insoluble Aβ40 (insoluble Aβ40; study 15, Tg2576, 36 weeks at start, 6 μmol/kg p.o., vehicle 3, 8 days, 3 h since last dosing): 2%
- Effect on insoluble Aβ40 (insoluble Aβ40; study 17, Tg2576, 68 weeks at start, 6 μmol/kg p.o., 4 days, 3 h since last dosing): −7.6%
- Effect on insoluble Aβ40 (insoluble Aβ40; study 20, Tg2576, 32 weeks at start, 30 μmol/kg p.o., 21 days, 4.5 h since last dosing): −70%
- Effect on insoluble Aβ40 (insoluble Aβ40; study 21, Tg2576, 36 weeks at start, 6 μmol/kg p.o., vehicle 3, 8 days, 3 h since last dosing): −30%
- Effect on insoluble Aβ40 (insoluble Aβ40; study 22, Tg2576, 24–28 weeks at start, 30 μmol/kg p.o., 45 days, 4.5 h since last dosing, P < 0.05): −57 ^* %
- Effect on insoluble Aβ40 (insoluble Aβ40; study 23, Tg2576, 37–40 weeks at start, 30 μmol/kg p.o., 28 days, 4.5 h since last dosing, P < 0.05): −67 ^* %
- fraction unbound (Plasma unbound fraction): 0.004
